Data published in US20250345356A1, “TIRAPAZAMINE COMPOSITIONS AND METHODS” (priority 2024, published 2025).
Where two headings read alike, the source gives them in different places.

How the values were obtained:
[1] = cited from earlier work
[2] = mice, cited from earlier work
[3] = 1-week intravenous study, single dose level of 1 g; cited from earlier work
[4] = system: advanced head and neck cancer; details: intent-to-treat, with radiotherapy 70 Gy; cited from earlier work
[5] = PK of TPZ and metabolites SR4317 and SR4330 after intra-arterial injection of TPZ in NS vs HPβCD; assay type: in vivo, Sprague Dawley rats; details: for dose proportionality of plasma concentrations: 3.33 mg/kg vs. 7 mg/kg in either solvent; for reduction of plasma concentrations in the curve of HPβCD than that of NS: after TPZ in 1% HPβCD vs NS; for AUClast, HβC Mean / Cmax, HβC Mean / AUClast, Normal Saline (NS) Mean / Cmax, Normal Saline (NS) Mean: rats
From the text: Purpose of the study: To evaluate the pharmacokinetics (PK) of tirapazamine and its metabolites, SR4317 and SR4330 [Graham, M A et al. Cancer Chemother. Pharmacol. (1997) 40 (1): 1-10], after injection of TPZ in 1% HPβCD or normal saline.
Animals: Twenty-four female (12) and male (12) Sprague Daley (SD) rats, weight 200-250 grams, respectively, with femoral artery and jugular vein cannulated, were purchased from, Taconic. Two extra cannulated male and female rates were used to test tolerability with buffer. Each rate was housed individually to safeguard the vessel catheters.
The study parameters are shown in Table 22. began after a 3-day period of adjustment to the animal facility. The study compound was injected into the femoral artery catheter (FAC at 2-1 m (by slow injection. Blood samples were collected from a jugular vein catheter (JVC) at 6 timepoints: 0 (baseline) and after drug administration at 15 and 30 minutes, 1 hr, 2 hr, and 6 hours. The volume of blood sample for each time point was approximately 0.6 mL. Plasma samples were collected in tubes containing sodium heparin as anti-coagulant. Plasma was prepared and frozen in −80° C. Rats were euthanized after the last blood sample (euthanized after the 6 hr time point).
Male rats were around 250 grams, and female 200 grams. There were 8 groups with Groups 1-4 females, and […]. Each group had 3 rats. TPZ was dissolved in NS or […] at a concentration 0.7 mg/mL.
The concentrations of TPZ and its metabolites, SR4317 and SR4330, in rat plasma samples were analyzed using liquid chromatography Tandem Mass Spectrometry (LC-MS) by Primera Analytical Solutions Corp (Princeton, NJ). Standards for TPZ, SR4317 and SR4330 were provided by Teclison, Inc. (Princeton, NJ) for calibration. All analytical data were reviewed for completeness and accuracy. Data transferred manually was cross-checked against source data which was part of the study raw data.
LC-MS analysis was conducted with Sciex 4000 with a Shimadzu LC-30 System.
The concentration data was imported and plotted with SAS program as ADPC (Analysis Dataset of Pharmacokinetics Concentrations) dataset. PK parameters calculated based on ADPC were output as an Analysis Dataset of Pharmacokinetics Parameters (ADPP) dataset.
PK parameters of each profile were calculated by non-compartmental analysis using SAS programming. BLQ (Below the Limit of Quantification) observation prior to the first measurable concentration was imputed as zero, otherwise, the BLQ observation was left as missing.
An apparent first-order terminal elimination rate constant (Kel) was calculated by linear least-squares regression analysis using at least three points (excluding Cmax) in the terminal log-linear phase. Uniform weighting was adopted when performing regression analysis. Linear-up/log-down approach was utilized to calculate AUC.
A linear model was built to evaluate the effect of solution on the PK parameters, adjusting for sex and dose. The model included sex (F, M), solution type (Normal saline, Hydroxypropyl-beta-Cyclodextrin “HP-beta-CD”), and dose (mg) as fixed effects. Sex and solution type are categorical variables (meaning a variable based on a qualitative, not numerical, property) and dose is a continuous variable (meaning a random variable that can take on an infinite number of values within a certain interval that represents measurable data). Separate models were built for each combination of analyte (TPZ, SR4317 and SR4330) and PK parameters (AUClast and Cmax) using the BY statement, which divides the observations from an input data set into groups for processing.
The difference of lease squared means between solution types was estimated. 95% confidence intervals (CI), and p-values for the difference were presented. The significance level (alpha) was set at 0.05, meaning that a p-value less than 0.05 was considered statistically significant.

HCC = details: cited from earlier work
[6] = intra-arterial TPZ 3.33 mg/kg in HPβCD
[7] = intra-arterial TPZ 3.33 mg/kg in NS
[8] = intra-arterial TPZ 7 mg/kg in HPβCD
[9] = intra-arterial TPZ 7 mg/kg in NS

Molecule: 2-hydroxypropyl-β-cyclodextrin [HPβCD]
- daily dose considered non-toxic ([1]; at least for 14 days): < 16 g
- tolerability ([1]; daily oral doses of 4-8 g for at least 2 weeks): well tolerated and safe
- adverse effects ([1]; oral daily doses of 16-24 g for 14 days, healthy volunteers): increased incidence of soft stools and diarrhea
- lethality ([2]; single intravenous dose of up to 2 g/kg): not lethal
- acute toxicity ([2]; up to 10 gram/kg intra-peritoneal (i.p.) injection): neither lethal nor did it produce any toxicity
- adverse effects [3]: no adverse effects were reported

Molecule: N.N.[Cl][Pt][Cl] [CIS, cisplatin]
- 2-year OS rates [4]: 65.7%

Molecule: Nc1nc2ccccc2[n+]([O-])n1 [SR4317]
- AUClast HβC/NS Ratio (%) ([5]; 3.33 mg/kg): 78.09%
- Cmax HβC/NS Ratio (%) ([5]; 3.33 mg/kg): 80.62%
- dose proportionality of plasma concentrations [5]: dose proportional effect was observed
- AUClast HβC/NS Ratio (%) ([5]; 7 mg/kg): 78.86%
- Cmax HβC/NS Ratio (%) ([5]; 7 mg/kg): 88.17%
- reduction of plasma concentrations in the curve of HPβCD than that of NS [5]: 20-30%
- AUClast, HβC Mean [5, 6]: 0.47996 µg·h/mL
- Cmax, HβC Mean [5, 6]: 0.49017 µg/mL
- AUClast, Normal Saline (NS) Mean [5, 7]: 614.61 ng·h/mL
- Cmax, Normal Saline (NS) Mean [5, 7]: 0.608 µg/mL
- AUClast, HβC Mean [5, 8]: 1.21097 µg·h/mL
- Cmax, HβC Mean [5, 8]: 1.12267 µg/mL
- AUClast, Normal Saline (NS) Mean [5, 9]: 1535.52 ng·h/mL
- Cmax, Normal Saline (NS) Mean [5, 9]: 1.27333 µg/mL

Molecule: Nc1nnc2ccccc2n1 [SR4330]
- AUClast HβC/NS Ratio (%) ([5]; 3.33 mg/kg): 73.09%
- Cmax HβC/NS Ratio (%) ([5]; 3.33 mg/kg): 77.65%
- dose proportionality of plasma concentrations [5]: dose proportional effect was observed
- AUClast HβC/NS Ratio (%) ([5]; 7 mg/kg): 74.37& %
- Cmax HβC/NS Ratio (%) ([5]; 7 mg/kg): 89.31%
- reduction of plasma concentrations in the curve of HPβCD than that of NS [5]: 20-30%
- half-life compared with TPZ and SR4317 ([5]; rat plasma): longer than TPZ and SR4317
- AUClast, HβC Mean [5, 6]: 0.09989 µg·h/mL
- Cmax, HβC Mean [5, 6]: 0.08188 µg/mL
- AUClast, Normal Saline (NS) Mean [5, 7]: 136.67 ng·h/mL
- Cmax, Normal Saline (NS) Mean [5, 7]: 0.10545 µg/mL
- AUClast, HβC Mean [5, 8]: 0.38593 µg·h/mL
- Cmax, HβC Mean [5, 8]: 0.25483 µg/mL
- AUClast, Normal Saline (NS) Mean [5, 9]: 518.92 ng·h/mL
- Cmax, Normal Saline (NS) Mean [5, 9]: 0.28533 µg/mL

Molecule: COc1cccc2c1C(=O)c1c(O)c3c(c(O)c1C2=O)C[C@@](O)(C(=O)CO)C[C@@H]3O[C@H]1C[C@H](N)[C@H](O)[C@H](C)O1 [doxorubicin]
- necrosis in the HCC within the territory of HAL (HCC; Day 1 post-treatment, tirapazamine 3 mg/kg, doxorubicin 10 mg/kg, transient left HAL): about 5%
- pathological changes in HCCs (HCC; Day 7, 10 mg/kg with left HAL): Little to no pathological changes
